Laboratory results reported in patent US20020164721A1, “Design of a polyepitopic construct for the induction of HLA-A2.1 restricted HIV 1 specific CTL responses using HHD mice” (priority 1999, published 2002).
“And” between values parts separate entries of the source, which are not always exact repeats. Identical values can stand only once. “Also recorded” adds a separate entry of the source. Like-named read-outs stand apart in the source and are kept apart here.

Key:
[1] = tested on: HHD-transfected RMA-S cells loaded with relevant peptide; assay: CTL response of HHD mice injected s.c. with tumor epitopic peptide in IFA (51Cr-release assay); type: in vivo; conditions: for hierarchy of CTL inducers: peptide alone in IFA, by number of responding mice and level of specific lysis; for R/T (responder versus tested mice) / lysis in % (maximal lysis for each responder mouse): peptide s.c. in IFA; for R/T (responder versus tested mice): no helper, responder = at least 10% specific lysis; for lysis in % (maximal lysis for each responder mouse): usually 60:1 E/T ratio
[2] = tested on: HHD-transfected RMA-S cells loaded with relevant peptide; assay: CTL response of A2A2Kb mice injected s.c. with tumor epitopic peptide in IFA (51Cr-release assay); type: in vivo; conditions: for R/T (responder versus tested mice): responder = at least 10% specific lysis
[3] = tested on: HHD-transfected RMA-S target cells loaded with relevant peptide; assay: CTL response of HHD mice co-immunized in IFA with tumor peptide and HBVc.128 helper peptide; type: in vivo; conditions: for R/T (responder versus tested mice): 50 μg CD8 peptide + 140 μg HBVc.128 helper in IFA; for CTL response with helper peptide (in words): co-injected with HBVc.128 helper, compared with peptide alone
[4] = tested on: peptide-loaded HHD-transfected RMA-S cells and HHD-transfected HeLa cells expressing the polyepitope; assay: Melanoma polyepitopic pCMV-B10 DNA immunization of HHD mice, CTL assay; type: in vivo; conditions: pCMV-B10 DNA with 10 melanoma epitopes, FIG. 1C and D
HLA-A2.1 molecules = target: T1, HLA-A2.1 molecules (Homo sapiens, UniProt P04439, D140Y/D185E/D98H/E176V/E277Q/G131W/G231S/I119V/I121R/I166T/I218V/L300P/L318F/N151K/N90K/P208A/P217A/Q86G/Q94H/R138H/R169H/T345S); type: binding
T1 construct: Using TAP-deficient, HLA-A2.1^+ T2 cells, we evaluated these parameters in an immunofluorescence assay; endogenous in cells; host or cells: T2 cells (TAP-deficient, HLA-A2.1+)

[5] = tested on: HHD-transfected RMAS cells loaded with relevant peptide; assay: CTL response of HHD mice immunized with peptide-loaded dendritic cells; type: in vivo
[6] = tested on: HHD-transfected RMAS cells loaded with relevant peptide; assay: CTL response of HHD mice immunized with monoepitopic pCMV-B10 DNA; type: in vivo; conditions: pCMV-B10 DNA encoding the epitope; individual mice 1-6
[7] = tested on: HHD-transfected RMAS cells loaded with relevant peptide; assay: CTL response of HHD mice immunized with lipopeptides; type: in vivo; conditions: lipopeptide of the epitope; individual mice 1-6
[8] = tested on: peptide-pulsed HHD-transfected RMAS cells; type: in vivo, HHD mice; conditions: for Maximum specific lysis (%): each responder mouse
[9] = tested on: peptide-pulsed HHD-transfected RMAS cells; type: in vivo, HHD mice
[10] = by number of responder mice and strength of responses, peptide in IFA
[11] = without helper peptide, 100 μg peptide s.c. in IFA
[12] = with helper peptide, 50 μg CD8 + 140 μg HBV core T13L in IFA
[13] = wild-type HIV 1 peptides, reference I9V, T2 cells

Sequence	hierarchy of CTL inducers [1]	R/T (responder versus tested mice) [1]	R/T (responder versus tested mice) [2]	R/T (responder versus tested mice) [3]	CTL response against the epitope after melanoma polyepitope DNA immunization (in words) [4]	RA (relative affinity) (HLA-A2.1 molecules)	classification as immunogen [8, 10]	Responder/tested mice [8, 11]	Responder/tested mice [9, 12]	also measured
KTWGQYWQV [gp100.154]	strong	4/6	5/6	9/11	Strong responses					CTL response with helper peptide (in words) [3]: stronger responses in a larger proportion of mice
FLWGPRALV [MAGE-3.271]	weak	1/6	0/6	6/6	No specific lysis					lysis in % (maximal lysis for each responder mouse) [1]: (33) %; CTL response with helper peptide (in words) [3]: good CTL responses in a large proportion of mice
STPPPGTRV [p53.149, p53 149-157 epitopic peptide]	inefficient	0/6	0/6	3/6						
YMDGTMSQV [Tyrosinase.368-D]	weak	1/6	0/6	2/6	elicited CTL responses depending on mice	2.27				lysis in % (maximal lysis for each responder mouse) [1]: (10) %; lysis in % (highest specific lysis) ([5]; individual mice 1-6, usually 60/1 E/T): 12% and 20% and 8% and 3% and 7% and 23%; lysis in % after a second in vitro restimulation ([5]; second restimulation with 10% TCGF, individual mice 1-6): (64) %; also recorded: (92) %; also recorded: (71) %; also recorded: (68) %; also recorded: (56) %; lysis in % (highest specific lysis) [6]: 57% and 55% and 28% (2×) and 58% and 56%; lysis in % (highest specific lysis) [7]: 0% (3×) and 10% and 1% and 4%
RMPEAAPPV [p53.65, p53 65-73 epitopic peptide]	intermediate	4/6	0/6	5/6		0.91				CTL response with helper peptide (in words) [3]: stronger responses in a larger proportion of mice
MLLAVLYCL [Tyrosinase.1, Tyrosinase 1-9 epitopic peptide]	inefficient	0/10	0/6	5/6	did not elicit CTL responses; also recorded: No specific lysis	>60				CTL response with helper peptide (in words) [3]: good CTL responses in a large proportion of mice
ITDQVPFSV [gp100.209]	weak	1/6	0/6	3/6	elicited CTL responses depending on mice; also recorded: No specific lysis					lysis in % (maximal lysis for each responder mouse) [1]: (23) %
LLGRNSFEV [p53.264]	inefficient	0/7	0/6	2/3						
TLNAWVKVV [T9V]							intermediate	2/6	3/5	
LLDGTATLRL [gp100.457]	inefficient	0/6	0/6	5/6	Significant responses	1.65				CTL response with helper peptide (in words) [3]: good CTL responses in a large proportion of mice
PLTFGWCFKL [P10L, HIV 1 NEF (134-143) CD8 epitopic peptide]							inefficient	0/6	0/6	RA (relative affinity) (HLA-A2.1 molecules; [13]): >100/ND
PLVKLWYQL [P9L, HIV 1 POL (576-584) CD8 epitopic peptide]							inefficient	0/6	0/6	RA (relative affinity) (HLA-A2.1 molecules; [13]): >100/ND
LLWKGEGAV [L9V, HIV 1 POL (956-964) CD8 epitopic peptide]							intermediate	3/6		
RLRDLLLIV [R9V, HIV 1 ENV gp41 (260-268) CD8 epitopic peptide]						>100/ND	intermediate	1/6	0/6	Maximum specific lysis (%) ([8]; without helper peptide): 14%
ILKEPVHGV [I9V]							strong	4/6	5/6	
ILTVILGVL [Melan-A/MART-1.32, Melan-A/MART-1 32-40 epitopic peptide]	inefficient	0/6	0/6	1/6	did not elicit CTL responses; also recorded: No specific lysis	21.1				lysis in % ([3]; co-injected with HBVc.128 helper peptide in IFA, each responder mouse): (10) %
VIYQYMDDL [V9L, HIV 1 POL (334-342) CD8 epitopic peptide]							intermediate	1/6	1/6	Maximum specific lysis (%) ([8]; without helper peptide): 34%; Maximal specific lysis (%) ([9]; with helper peptide, each responder mouse): 57%
TLGIVCPI [HPV E7.86, HPV16 E7 86-93 epitopic peptide]	inefficient	0/6	2/6	2/6						
VLYRYGSFSV [gp100.476, gp100 476-485 human melanoma epitopic peptide]	weak	2/6	1/6	6/7	did not elicit CTL responses	10				lysis in % (maximal lysis for each responder mouse) ([2]; usually 60:1 E/T ratio): (29) %
IISAVVGIL [Her2/neu.654, Her2/neu 654-662 epitopic peptide]	weak	1/6	0/6	0/6						lysis in % (maximal lysis for each responder mouse) [1]: (42) %
AFHHVAREL [A9L, HIV 1 NEF (188-196) CD8 epitopic peptide]							inefficient	0/6	0/6	
ESELVNQIIEQ [E11Q]										classification as immunogen ([8]; mouse, in vivo): inefficient; Responder/tested mice ([8]; mouse, in vivo, sc): 0/6; Responder/tested mice ([9]; mouse, in vivo): 0/6
